Key:
Assay in all cases: relative viability (nuclei count vs DMSO), 5 days (fraction); higher = more cells survive
Midostaurin + Bortezomib = compound: CO[C@@H]1[C@H](N(C)C(=O)c2ccccc2)C[C@H]2O[C@]1(C)n1c3ccccc3c3c4c(c5c6ccccc6n2c5c31)C(=O)NC4 [Midostaurin] + CC(C)C[C@H](NC(=O)[C@H](Cc1ccccc1)NC(=O)c1cnccn1)B(O)O [Bortezomib] (partner 0.002 µM)
Outline: (§1)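 Relative viability equals treated-well nuclei counts divided by vehicle-well nuclei counts. Counts came from 4× images of lung cancer cell lines grown in 1536-well plates for 5 days after pin-tool dosing on the day after seeding. Dosing used one drug alone or a fixed anchor-drug dose plus five library-drug doses (not always all listed) in √10 steps, and values are medians of duplicate plates.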

Midostaurin + Tozasertib = compound: CO[C@@H]1[C@H](N(C)C(=O)c2ccccc2)C[C@H]2O[C@]1(C)n1c3ccccc3c3c4c(c5c6ccccc6n2c5c31)C(=O)NC4 [Midostaurin] + Cc1cc(Nc2cc(N3CCN(C)CC3)nc(Sc3ccc(NC(=O)C4CC4)cc3)n2)n[nH]1 [Tozasertib] (partner 0.1 µM)
Outline: as §1

Midostaurin + Linsitinib = compound: CO[C@@H]1[C@H](N(C)C(=O)c2ccccc2)C[C@H]2O[C@]1(C)n1c3ccccc3c3c4c(c5c6ccccc6n2c5c31)C(=O)NC4 [Midostaurin] + C[C@]1(O)C[C@@H](c2nc(-c3ccc4ccc(-c5ccccc5)nc4c3)c3c(N)nccn32)C1 [Linsitinib] (partner 1 µM)
Outline: as §1

Midostaurin + Lapatinib = compound: CO[C@@H]1[C@H](N(C)C(=O)c2ccccc2)C[C@H]2O[C@]1(C)n1c3ccccc3c3c4c(c5c6ccccc6n2c5c31)C(=O)NC4 [Midostaurin] + CS(=O)(=O)CCNCc1ccc(-c2ccc3ncnc(Nc4ccc(OCc5cccc(F)c5)c(Cl)c4)c3c2)o1 [Lapatinib] (partner 2 µM)
Outline: as §1

Midostaurin + Olaparib = compound: CO[C@@H]1[C@H](N(C)C(=O)c2ccccc2)C[C@H]2O[C@]1(C)n1c3ccccc3c3c4c(c5c6ccccc6n2c5c31)C(=O)NC4 [Midostaurin] + O=C(c1cc(Cc2n[nH]c(=O)c3ccccc23)ccc1F)N1CCN(C(=O)C2CC2)CC1 [Olaparib] (partner 8 µM)
Outline: as §1

| Cell Line | relative viability (Midostaurin + Bortezomib; first compound 0.01 µM) | relative viability (Midostaurin + Bortezomib; first compound 0.03162 µM) | relative viability (Midostaurin + Bortezomib; first compound 0.1 µM) | relative viability (Midostaurin + Bortezomib; first compound 0.3162 µM) | relative viability (Midostaurin + Tozasertib; first compound 0.01 µM) | relative viability (Midostaurin + Tozasertib; first compound 0.03162 µM) | relative viability (Midostaurin + Tozasertib; first compound 0.1 µM) | relative viability (Midostaurin + Tozasertib; first compound 0.3162 µM) | relative viability (Midostaurin + Linsitinib; first compound 0.01 µM) | relative viability (Midostaurin + Linsitinib; first compound 0.03162 µM) | relative viability (Midostaurin + Linsitinib; first compound 0.1 µM) | relative viability (Midostaurin + Linsitinib; first compound 0.3162 µM) | relative viability (Midostaurin + Lapatinib; first compound 0.01 µM) | relative viability (Midostaurin + Lapatinib; first compound 0.03162 µM) | relative viability (Midostaurin + Lapatinib; first compound 0.1 µM) | relative viability (Midostaurin + Lapatinib; first compound 0.3162 µM) | relative viability (Midostaurin + Olaparib; first compound 0.01 µM) | relative viability (Midostaurin + Olaparib; first compound 0.03162 µM) | relative viability (Midostaurin + Olaparib; first compound 0.1 µM) | relative viability (Midostaurin + Olaparib; first compound 0.3162 µM) |
| --- | --- | --- | --- | --- | --- | --- | --- | --- | --- | --- | --- | --- | --- | --- | --- | --- | --- | --- | --- | --- |
| BEN | 0.797 | 0.841 | 0.909 | 1.09 | 0.501 | 0.551 | 0.401 | 0.459 | 0.926 | 0.905 | 1.02 | 0.978 | 0.718 | 0.719 | 0.777 | 0.815 | 1.12 | 1.24 | 0.928 | 1.13 |
| EMC-BAC-2 | 1.08 | 0.998 | 1.04 | 1.1 | 0.267 | 0.296 | 0.243 | 0.273 | 0.84 | 0.777 | 0.669 | 0.765 | 0.869 | 0.828 | 0.872 | 0.885 | 0.459 | 0.497 | 0.411 | 0.374 |
| LU99A | 1.08 | 1.17 | 1.1 | 0.998 | 0.227 | 0.304 | 0.259 | 0.244 | 0.5 | 0.503 | 0.408 | 0.407 | 0.983 | 1.04 | 1.02 | 0.993 | 0.261 | 0.295 | 0.257 | 0.207 |
| ABC-1 | 0.316 | 0.289 | 0.285 | 0.292 | 0.146 | 0.191 | 0.174 | 0.201 | 0.854 | 0.546 | 0.628 | 0.727 | 1.05 | 1.29 | 1 | 1.17 | 0.691 | 1.31 | 0.59 | 0.928 |
| NCI-H2347 | 0.842 | 0.95 | 0.956 | 0.976 | 0.494 | 0.553 | 0.616 | 0.506 | 0.896 | 0.837 | 0.899 | 0.927 | 0.883 | 0.863 | 0.956 | 1.11 | 0.602 | 0.54 | 0.424 | 0.519 |
| NCI-H1993 | 1.03 | 1.15 | 1.08 | 1.11 | 0.595 | 0.606 | 0.545 | 0.599 | 0.782 | 0.712 | 0.655 | 0.669 | 0.831 | 0.805 | 0.809 | 0.79 | 1.08 | 0.791 | 1.01 | 1.11 |
| NCI-H322M | 1.37 | 1.27 | 1.17 | 1.34 | 0.474 | 0.477 | 0.481 | 0.544 | 0.993 | 0.945 | 1.08 | 1.08 | 0.621 | 0.465 | 0.627 | 0.695 | 0.703 | 0.72 | 0.698 | 0.779 |
| NCI-H838 | 0.886 | 0.91 | 0.638 | 0.448 | 0.271 | 0.283 | 0.262 | 0.286 | 1.01 | 0.828 | 0.739 | 0.367 | 0.955 | 0.92 | 0.897 | 0.452 | 0.748 | 0.839 | 0.511 | 0.229 |
| HARA | 1.12 | 1.03 | 1.07 | 1.12 | 0.142 | 0.0861 | 0.0946 | 0.0968 | 0.936 | 0.979 | 0.877 | 0.969 | 0.641 | 0.665 | 0.522 | 1.01 | 0.786 | 0.842 | 0.644 | 0.752 |
| NCI-H2087 | 0.827 | 0.717 | 0.542 | 0.841 | 0.249 | 0.303 | 0.225 | 0.207 | 0.985 | 0.885 | 0.934 | 1.01 | 1.09 | 0.889 | 1.02 | 1.4 | 0.585 | 0.539 | 0.635 | 0.608 |
| NCI-H1437 | 0.556 | 0.499 | 0.478 | 0.545 | 0.453 | 0.477 | 0.401 | 0.403 | 1.2 | 0.992 | 1.12 | 1.05 | 0.808 | 0.848 | 0.773 | 0.882 | 0.618 | 0.665 | 0.629 | 0.516 |
| NCI-H650 | 0.635 | 0.783 | 0.734 | 0.625 | 0.657 | 0.751 | 0.749 | 0.615 | 0.715 | 0.862 | 0.76 | 0.508 | 0.838 | 0.988 | 0.582 | 0.687 | 0.36 | 0.406 | 0.412 | 0.313 |
| COR-L23 | 0.871 | 0.957 | 0.936 | 0.81 | 0.204 | 0.198 | 0.166 | 0.152 | 0.863 | 0.802 | 0.764 | 0.764 | 0.922 | 1.1 | 0.835 | 0.855 | 0.386 | 0.269 | 0.279 | 0.255 |
| COR-L 105 | 0.823 | 0.804 | 0.668 | 0.499 | 0.404 | 0.356 | 0.341 | 0.313 | 0.818 | 0.922 | 0.766 | 0.727 | 0.364 | 0.395 | 0.357 | 0.344 | 0.829 | 0.626 | 0.527 | 0.616 |
| 201T | 1.08 | 1.04 | 1.05 | 1.13 | 0.974 | 0.913 | 0.915 | 0.891 | 1.05 | 1 | 1.07 | 1.04 | 1.06 | 0.982 | 1.07 | 1.08 | 0.833 | 0.801 | 0.815 | 0.86 |
| HCC-44 | 0.84 | 0.881 | 0.796 | 0.762 | – | 1.04 | 0.819 | 0.778 | 0.756 | 0.659 | 0.579 | 0.609 | 1.01 | 0.985 | 1.04 | 1.13 | 0.999 | 0.957 | 0.983 | 1 |
| NCI-H596 | 0.902 | 1.12 | 1.1 | 1.07 | 0.991 | 0.977 | 0.899 | 0.947 | 1.09 | 1.17 | 1.08 | 1.15 | 1.21 | 1.12 | 1.13 | 1.34 | 0.77 | 0.691 | 0.722 | 0.777 |
| H3255 | 0.857 | 0.832 | 0.731 | 0.789 | 0.624 | 0.635 | 0.61 | 0.695 | 0.948 | 0.875 | 0.953 | 1 | 0.35 | 0.282 | 0.259 | 0.22 | 0.515 | 0.538 | 0.498 | 0.533 |
| NCI-H647 | 0.953 | 1.07 | 0.876 | 0.765 | 0.411 | 0.35 | 0.293 | 0.18 | 1.09 | 1.37 | 1.1 | 0.738 | 0.932 | 1.12 | 0.768 | 0.646 | 0.495 | 0.688 | 0.455 | 0.316 |
| NCI-H2023 | 0.974 | 0.961 | 0.963 | 0.567 | 0.408 | 0.316 | 0.29 | 0.171 | 0.653 | 0.617 | 0.515 | 0.403 | 0.851 | 0.621 | 0.777 | 0.555 | 0.494 | 0.505 | 0.396 | 0.246 |
| NCI-H23 | 1.03 | 0.999 | 0.923 | 1.06 | 0.344 | 0.575 | 0.348 | 0.259 | 0.53 | 0.698 | 0.362 | 0.508 | 1.05 | 1 | 1 | 0.949 | 0.317 | 0.296 | 0.296 | 0.223 |
| NCI-H520 | 0.657 | 0.492 | 0.594 | 0.596 | 0.434 | 0.411 | 0.457 | 0.407 | 0.924 | 0.991 | 0.968 | 0.787 | 0.866 | 0.942 | 0.762 | 0.781 | 0.32 | 0.318 | 0.266 | 0.249 |
| NCI-H460 | 1.19 | 1.19 | 1.01 | 1.1 | 0.448 | 0.492 | 0.44 | 0.415 | 0.739 | 0.732 | 0.75 | 0.694 | 0.839 | 1.03 | 0.971 | 0.936 | 0.406 | 0.417 | 0.314 | 0.382 |
| EKVX | 1.01 | 0.995 | 0.947 | 0.9 | 0.369 | 0.414 | 0.366 | 0.343 | 0.953 | 1.03 | 0.943 | 0.892 | 0.214 | 0.127 | 0.242 | 0.212 | 0.836 | 0.847 | 0.738 | 0.775 |
| EPLC-272H | 0.921 | 0.927 | 1.05 | 1.11 | 0.261 | – | 0.186 | 0.311 | 1.08 | 1.11 | 1.17 | 1.22 | 0.918 | 0.867 | 0.75 | 0.855 | 0.659 | 0.729 | 0.658 | 0.372 |
| NCI-H2126 | 1.07 | 1.08 | 1.03 | 1.12 | 0.861 | 0.8 | 0.844 | 0.857 | 0.742 | 0.673 | 0.748 | 0.792 | 0.753 | 0.687 | 0.808 | 0.833 | 0.813 | 0.901 | 0.853 | 0.779 |
| LXF-289 | 0.997 | 0.97 | 0.967 | 0.974 | 0.23 | 0.23 | 0.178 | 0.176 | 1 | 0.967 | 0.866 | 0.953 | 0.92 | 0.888 | 0.866 | 0.951 | 1.13 | 1.05 | 1.04 | 0.992 |

Reference: the supplement of paper PMC10307832
